Legend:
Perennial rye grass = assay: Preliminary herbicide seed germination test (pre-emergent), rye grass; format: in vivo, Solium perenne; set-up: key: 5: no seedling emerged; 4: few seedlings emerged and/or very severe stunting; 3: moderate reduction in stand and/or moderate stunting; 2: very slight reduction in stand and/or slight stunting; 1: no injury; seedlings appear no different with respect to stand or growth than untreated controls; conditions: Table II; ten to twelve days after application
Method: (§1) Suspensions of the test compounds were prepared by dissolving one gram of compound in 50 milliliters of acetone in which had been dissolved 0.1 gram (10 percent of the weight of compound) of an alkylphenoxyethoxyethanol surfactant, as an emulsifying or dispersing agent. The resulting solution was mixed into 160 milliliters of water to give roughly 200 milliliters of a suspension containing the compound in finely divided form. The thus prepared stock suspension contained 0.5 percent by weight of compound. The test concentrations employed in the tests described herein below were obtained by diluting the stock suspension with water. The test procedures were as follows:
(§2) The following seeds were used in this test:
Perennial rye grass--Solium perenne
(§3) Two soil-seed mixtures were prepared as follows:
(§4) Each of the above mixtures was rolled separately in 5 gallon containers for approximately one-half hour on ball mill to insure uniform mixing of seeds and soil. For each compound four 3-inch pots were filled with soil to within 11/2 inches of top of pots. To two of these pots were added 70 cc. of Mixture I. To the remaining 2 pots were added 70 cc. of Mixture II. The seed-soil mixture was tamped firmly, and the pots were removed to the green-house and watered lightly. About 2 hours after planting, 25 milliliters of the test formulation were added to one pot containing Mixture I and one pot containing Mixture II. An equal volume of a water solution containing acetone and an emulsifier in the same concentration as the herbicidal mixture but without the candidate herbicide was also added to each of the soil-seed mixtures. These pots are used as check or control units. The test compounds were formulated by diluting the stock suspension with water to obtain the desired concentration of the compound in parts per million of the final formulation. Each compound was tested at the same concentration. […] Ratings were made according to the following designations:
(§5) Tests were conducted in accordance with the procedures given at pages 32 to 37 supra. The results are expressed in the same manner as used in Table I, except with respect to miticidal activity. For mite adult and mite egg comparison purposes, results are given in parts per million (ppm) required for a 50 percent kill of mites or eggs, respectively.

Cotton = assay: Post-emergent herbicidal test, cotton; format: in vivo; set-up: key: 1: no perceptible injury; 2: intermediate degrees of injury based upon the number and extent to which leaves were injured; 3: intermediate degrees of injury based upon the number and extent to which leaves were injured; 4: intermediate degrees of injury based upon the number and extent to which leaves were injured; 5: the plant was dead; conditions: Table II; 2500 parts per million; after ten days
Method: as §1
(§6) Experiments were also conducted to determine the phytotoxicity of representative compositions with respect to healthy fresh plants. Solutions of the compounds were prepared as described above to provide a concentration of 2500 parts per million of the test compound. The test plants were sprayed in accordance with the procedure described above for the Mite Foliage Spray Test so as to deliver approximately 100 milliliters of test solutions to the leaves of each plant tested. The sprayed plants and controls were set aside for approximately one hour to allow the solutions to dry and were then placed in the greenhouse. After ten days the plants were visually inspected to determine the extent of foliage injury. A rating of 1 indicates no perceptible injury; 5 indicates the plant was dead and ratings of 2, 3 and 4 indicate intermediate degrees of injury based upon the number and extent to which leaves were injured.
as §5

Corn = assay: Post-emergent herbicidal test, corn; format: in vivo; set-up: key: 1: no perceptible injury; 2: intermediate degrees of injury based upon the number and extent to which leaves were injured; 3: intermediate degrees of injury based upon the number and extent to which leaves were injured; 4: intermediate degrees of injury based upon the number and extent to which leaves were injured; 5: the plant was dead; conditions: Table II; 2500 parts per million; after ten days
Method: as §1, §6, §5

Crabgrass = assay: Preliminary herbicide seed germination test (pre-emergent), crabgrass; format: in vivo, Digitaria sanguinalis; set-up: key: 5: no seedling emerged; 4: few seedlings emerged and/or very severe stunting; 3: moderate reduction in stand and/or moderate stunting; 2: very slight reduction in stand and/or slight stunting; 1: no injury; seedlings appear no different with respect to stand or growth than untreated controls; conditions: Table II; ten to twelve days after application
Method: as §1, §2
Crabgrass--Digitaria sanguinalis
as §3, §4, §5

Mustard = assay: Preliminary herbicide seed germination test (pre-emergent), mustard; format: in vivo, Brassica pincea var. foliosa (Florida broadleaf); set-up: key: 5: no seedling emerged; 4: few seedlings emerged and/or very severe stunting; 3: moderate reduction in stand and/or moderate stunting; 2: very slight reduction in stand and/or slight stunting; 1: no injury; seedlings appear no different with respect to stand or growth than untreated controls; conditions: Table II; ten to twelve days after application
Method: as §1, §2
Mustard--Brassica pincea var. foliosa (Florida broadleaf)
as §3
as §4, with “designations: […]” for “designations:”

[1] = tested on: Red root pigweed (Amaranthus); assay: Preliminary herbicide seed germination test (pre-emergent), Amaranthus; format: in vivo, Amaranthus retroflexus; set-up: key: 5: no seedling emerged; 4: few seedlings emerged and/or very severe stunting; 3: moderate reduction in stand and/or moderate stunting; 2: very slight reduction in stand and/or slight stunting; 1: no injury; seedlings appear no different with respect to stand or growth than untreated controls; conditions: Table II; ten to twelve days after application
Method: as §1, §2
Red root pigweed--Amaranthus retroflexus
as §3, §4, §5

Bean = assay: Post-emergent herbicidal test, bean; format: in vivo; set-up: key: 1: no perceptible injury; 2: intermediate degrees of injury based upon the number and extent to which leaves were injured; 3: intermediate degrees of injury based upon the number and extent to which leaves were injured; 4: intermediate degrees of injury based upon the number and extent to which leaves were injured; 5: the plant was dead; conditions: Table II; 2500 parts per million; after ten days
Method: as §1, §6, §5

With `Cc1ccc(C)c(C2C(=O)c3ccccc3C2=O)c1` [Reference II Page 146, Compound 6, reference compound] the “Pre-emergent Herbicidal, Rye (injury rating)” value (Perennial rye grass) was 1, the “Post-Emergent Herbicidal, Cotton (injury rating)” value (Cotton) was 1 and the “Post-Emergent Herbicidal, Corn (injury rating)” value (Corn) was 1. The “Pre-emergent Herbicidal, Crabgrass (injury rating)” value (Crabgrass) was 1, the “Pre-emergent Herbicidal, Mustard (injury rating)” value (Mustard) was 1 and the “Pre-emergent Herbicidal, Amaranthus (injury rating)” value [1] was 1. For the same compound, the “Post-Emergent Herbicidal, Bean (injury rating)” value (Bean) was 1.

With `Cc1ccc(C2C(=O)c3ccccc3C2=O)c(C)c1` [Reference II Page 146, Compound 9, reference compound] the “Pre-emergent Herbicidal, Rye (injury rating)” value (Perennial rye grass) was 4, the “Post-Emergent Herbicidal, Cotton (injury rating)” value (Cotton) was 1 and the “Post-Emergent Herbicidal, Corn (injury rating)” value (Corn) was 1. For the same compound, the “Pre-emergent Herbicidal, Crabgrass (injury rating)” value (Crabgrass) was 3, the “Pre-emergent Herbicidal, Mustard (injury rating)” value (Mustard) was 2 and the “Pre-emergent Herbicidal, Amaranthus (injury rating)” value [1] was 3. For the same compound, the “Post-Emergent Herbicidal, Bean (injury rating)” value (Bean) was 1.

From patent publication US4338122A, “Biocidal 2-aryl-1,3-cyclopentanedione compounds and alkali metal and ammonium salts thereof” (Union Carbide Corporation, priority 1980, dated 1982)
